According to PubChem BioAssay AID2060487 (Molecular Pharmacology Branch, DTP, NCI, 2025):
Values joined by “and” are separate entries in the source; they are usually repeats but may differ in a detail not shown here. Equal entries are not always repeated.

Tested on: 997537-175-T-J1-PDC complex spheroid viability
Test: Anticancer human tumor 997537-175-T-J1-PDC patient-derived colon adenocarcinoma cell line growth inhibition [GQUAD]
Details: for viability, T/C: stronger effect = lower value
Excerpt: DNA G-quadruplex Stabilizer Agents in Combinations in Complex Spheroids
A high-throughput screen of multi-cell type tumor spheroids was designed to identify active combinations of DNA G-quadruplex stabilizer agents and targeted small molecules. Complex spheroids include a stromal component modeled by human endothelial cells (HUVEC) and fibroblasts modeled by human mesenchymal stem cells (MSCs). The concentration ranges selected for each drug and investigational agent were based upon clinically achievable concentrations if the clinical Cmax of the agent was known.
Compounds. The drugs and investigational agents: pidnarulex (CX-5461; NSC782164), APTO-253 (NSC789042), BRACO-19 (NSC847499), peposertib (NSC802822), ceralasertib (NSC780249), elimusertib (NSC800525), camonsertib (NSC841442), AZD-1390 (NSC803789), olaparib (NSC753686), talazoparib (NSC767125), ART-558 (NSC835418), sotorasib (NSC818433), MRTX-1133 (NSC836407), SN-38 (NSC673596), topotecan (NSC609699), etoposide (NSC141540), doxorubicin (NSC123127), gemcitabine (NSC613327), 5-fluorouracil (NSC19893), paclitaxel (NSC125973), vemurafenib (NSC761431), panobinostat (NSC761190), R-306465 (JNJ-16241199; NSC773264), adavosertib (NSC754352), TP-3654 (NSC805149), carboplatin (NSC241240), KSQ-4279 (NSC840948), and staurosporine (NSC755774) were obtained from the National Cancer Institute (NCI) Developmental Therapeutics Program Chemical Repository (34). The FDA-approved anticancer drug set is available from the NCI Developmental Therapeutics Program. […] The stock solutions were prepared in dimethyl sulfoxide (DMSO, Sigma-Aldrich, St. Louis, MO, cat. D2650) at 800-fold the tested concentration and stored at -70 degrees C prior to their use. All drugs and investigational agents were tested over a range starting from a high concentration at or near the clinical Cmax and decreasing in half-log increments. If the clinical Cmax for an agent had not been determined, the highest concentration tested was 10 microM.
2.3 Cell Culture. All cells were maintained in an incubator at 37 degrees C and 5% CO2 with 95% humidity. The PDC lines were cultured according to standard operating procedures established by the NCI PDMR. All PDCs were thawed and cultured in Matrigel-coated flasks prepared with a working solution of 1X Ham's F-12 nutrient mix, without supplementation (Invitrogen, cat. 11765054), 100 U/mL penicillin-streptomycin (Invitrogen, cat. 15140122), and 2.5% Matrigel (Corning Inc., cat. 354248) for the first three passages. The 857933-349-R-J2-PDC line was cultured in 6C/Colon 1B media, which includes advanced DMEM/F-12 (Thermo Fisher Scientific, cat. 12634028), 10 mM HEPES (Thermo Fisher Scientific, cat. 15630080), 1X GlutaMAX supplement (Thermo Fisher Scientific, cat. 35050061), 0.1 mg/mL primocin (InvivoGen, cat. ant-pm-2), 10% defined fetal bovine serum, heat inactivated (HyClone Laboratories Inc., cat. SH30070.03HI), 50% L-WRN conditioned media (ATCC, cat. CRL-3276), 1.25 mM N-Acetyl-L-cysteine (Sigma-Aldrich, cat. A9165), 10 mM nicotinamide (Sigma-Aldrich, cat. N0636), 1X B-27 supplement (Thermo Fisher Scientific, cat. 17504044), 1X N-2 supplement (Thermo Fisher Scientific, cat. 17502048), 10 microM Y-27632 dihydrochloride (Tocris Bioscience, cat. 1254), and 50 ng/mL human EGF recombinant protein (Thermo Fisher Scientific, cat. PHG0311). The 485176-168-R4-J1-PDC line was cultured in Panc media, which includes all 6C/Colon 1B media components plus 100 ng/mL human FGF-10 (Thermo Fisher Scientific, cat. 100-26), 500 nM SB-431542 (Selleckchem, cat. S1067), and gastrin (Tocris, cat. 3006).
[…]
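Note: spheroids exposed to the agents for 7 days.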
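Throughout, for viability, T/C: 100% = DMSO vehicle control viability.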

Question: What does the source list for CC[C@@]1(O)C(=O)OCc2c1cc1n(c2=O)Cc2cc3c(CN(C)C)c(O)ccc3nc2-1?
Answer: viability, T/C (compound 0.000999 µM): 111% (2×) and 97.1%; viability, T/C (compound 0.00316 µM): 69.8% and 102% and 104%; viability, T/C (compound 0.00999 µM): 90.1% and 96.7% and 105%; viability, T/C (compound 0.0316 µM): 80.1% and 87.1% and 83.8%; viability, T/C (compound 0.0999 µM): 71.2% and 79.7% and 72.6%; viability, T/C (compound 0.316 µM): 44.4% and 62.8% and 50.7%; IC50 (curve of compound): 276 nM and > 316 nM

Question: How did the IC50 (curve of first compound, second compound 0.0316 µM) turn out when Cn1ncnc1[C@H]1c2n[nH]c(=O)c3cc(F)cc(c23)N[C@@H]1c1ccc(F)cc1 + Cc1cnc(CNC(=O)c2c(=O)c3ccc(N4CCCN(C)CC4)nc3n3c2sc2ccccc23)cn1 was run?
Answer: > 316 nM

Question: What about the IC50 (curve of first compound, second compound 0.1 µM) of the same compound?
Answer: > 316 nM

Question: What about the IC50 (curve of first compound, second compound 0.316 µM) of the same compound?
Answer: > 316 nM

Question: What about the IC50 (curve of first compound, second compound 1 µM) of the same compound?
Answer: > 316 nM

Question: And the IC50 (curve of first compound, second compound 3.16 µM)?
Answer: > 316 nM

Question: And the IC50 (curve of first compound, second compound 10 µM)?
Answer: > 316 nM

Question: What about the viability, T/C (second compound 0.0316 µM, first compound 0.000999 µM) of the same compound?
Answer: 96.5%

Question: What about the viability, T/C (second compound 0.0316 µM, first compound 0.00316 µM) of the same compound?
Answer: 90.8%

Question: What about the viability, T/C (second compound 0.0316 µM, first compound 0.00999 µM) of the same compound?
Answer: 90.8%

Question: What about the viability, T/C (second compound 0.0316 µM, first compound 0.0316 µM) of the same compound?
Answer: 86.6%

Question: And the viability, T/C (second compound 0.0316 µM, first compound 0.0999 µM)?
Answer: 76.9%

Question: What about the viability, T/C (second compound 0.0316 µM, first compound 0.316 µM) of the same compound?
Answer: 87.4%

Question: What about the viability, T/C (second compound 0.1 µM, first compound 0.000999 µM) of the same compound?
Answer: 106%

Question: What about the viability, T/C (second compound 0.1 µM, first compound 0.00316 µM) of the same compound?
Answer: 79.2%

Question: What about the viability, T/C (second compound 0.1 µM, first compound 0.00999 µM) of the same compound?
Answer: 106%

Question: What about the viability, T/C (second compound 0.1 µM, first compound 0.0316 µM) of the same compound?
Answer: 52.1%

Question: What about the viability, T/C (second compound 0.1 µM, first compound 0.0999 µM) of the same compound?
Answer: 89.6%

Question: What about the viability, T/C (second compound 0.1 µM, first compound 0.316 µM) of the same compound?
Answer: 85%

Question: And the viability, T/C (second compound 0.316 µM, first compound 0.000999 µM)?
Answer: 107%

Question: What about the viability, T/C (second compound 0.316 µM, first compound 0.00316 µM) of the same compound?
Answer: 93.8%

Question: What about the viability, T/C (second compound 0.316 µM, first compound 0.00999 µM) of the same compound?
Answer: 86.4%

Question: What about the viability, T/C (second compound 0.316 µM, first compound 0.0316 µM) of the same compound?
Answer: 80.8%

Question: And the viability, T/C (second compound 0.316 µM, first compound 0.0999 µM)?
Answer: 98.7%

Question: And the viability, T/C (second compound 0.316 µM, first compound 0.316 µM)?
Answer: 85.5%

Question: What about the viability, T/C (second compound 1 µM, first compound 0.000999 µM) of the same compound?
Answer: 89.4%

Question: What about the viability, T/C (second compound 1 µM, first compound 0.00316 µM) of the same compound?
Answer: 89.9%

Question: What about the viability, T/C (second compound 1 µM, first compound 0.00999 µM) of the same compound?
Answer: 94.4%

Question: What about the viability, T/C (second compound 1 µM, first compound 0.0316 µM) of the same compound?
Answer: 116%

Question: And the viability, T/C (second compound 1 µM, first compound 0.0999 µM)?
Answer: 95%

Question: And the viability, T/C (second compound 1 µM, first compound 0.316 µM)?
Answer: 108%

Question: And the viability, T/C (second compound 3.16 µM, first compound 0.000999 µM)?
Answer: 104%

Question: And the viability, T/C (second compound 3.16 µM, first compound 0.00316 µM)?
Answer: 86.9%

Question: And the viability, T/C (second compound 3.16 µM, first compound 0.00999 µM)?
Answer: 96.2%

Question: And the viability, T/C (second compound 3.16 µM, first compound 0.0316 µM)?
Answer: 100%

Question: And the viability, T/C (second compound 3.16 µM, first compound 0.0999 µM)?
Answer: 94.4%

Question: And the viability, T/C (second compound 3.16 µM, first compound 0.316 µM)?
Answer: 106%

Question: And the viability, T/C (second compound 10 µM, first compound 0.000999 µM)?
Answer: 87.2%

Question: What about the viability, T/C (second compound 10 µM, first compound 0.00316 µM) of the same compound?
Answer: 98.9%

Question: And the viability, T/C (second compound 10 µM, first compound 0.00999 µM)?
Answer: 97.7%

Question: What about the viability, T/C (second compound 10 µM, first compound 0.0316 µM) of the same compound?
Answer: 103%

Question: And the viability, T/C (second compound 10 µM, first compound 0.0999 µM)?
Answer: 96.4%

Question: And the viability, T/C (second compound 10 µM, first compound 0.316 µM)?
Answer: 98.3%

Question: Which results are given for CC1COCCN1c1cc(-c2ccnn2C)c2ccnc(-c3ccn[nH]3)c2n1 (stereo unspecified)?
Answer: viability, T/C (compound 0.0316 µM): 80.4% and 95.8% and 90.8%; viability, T/C (compound 0.1 µM): 67.5% and 75.7% and 62.5%; viability, T/C (compound 0.316 µM): 46% and 65.2% and 33.9%; viability, T/C (compound 1 µM): 61% and 40% and 50%; viability, T/C (compound 3.16 µM): 58% and 48.9% and 43.1%; viability, T/C (compound 10 µM): 36.4% and 43.5% and 49.4%; IC50 (curve of compound): 1750 nM and 846 nM and 219 nM
